{"source": "paper PMC3182833", "about": "(Molecular microbiology, 2011)", "target": "T1, SoArsAB (Sporomusa ovata, UniProt F6MZ55+F6MZ56)", "T1 sequence (F6MZ55 1-350)": "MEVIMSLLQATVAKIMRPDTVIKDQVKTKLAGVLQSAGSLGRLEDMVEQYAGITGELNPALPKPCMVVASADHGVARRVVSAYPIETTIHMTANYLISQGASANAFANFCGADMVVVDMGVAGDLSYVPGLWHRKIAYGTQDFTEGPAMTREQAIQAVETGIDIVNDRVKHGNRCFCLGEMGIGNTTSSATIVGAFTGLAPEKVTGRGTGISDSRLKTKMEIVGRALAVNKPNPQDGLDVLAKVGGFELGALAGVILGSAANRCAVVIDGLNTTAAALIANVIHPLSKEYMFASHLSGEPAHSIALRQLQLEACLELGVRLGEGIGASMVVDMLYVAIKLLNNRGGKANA", "T1 sequence (F6MZ56 1-350)": "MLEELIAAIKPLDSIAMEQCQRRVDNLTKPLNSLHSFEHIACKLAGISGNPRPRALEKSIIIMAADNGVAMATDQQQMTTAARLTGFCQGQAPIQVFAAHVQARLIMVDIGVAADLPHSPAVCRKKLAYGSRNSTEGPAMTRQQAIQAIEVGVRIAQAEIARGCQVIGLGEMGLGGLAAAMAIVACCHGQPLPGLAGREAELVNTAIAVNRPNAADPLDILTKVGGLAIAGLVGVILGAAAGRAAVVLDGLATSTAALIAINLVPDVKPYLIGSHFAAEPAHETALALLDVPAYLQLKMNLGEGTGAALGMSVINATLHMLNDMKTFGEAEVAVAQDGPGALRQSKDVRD", "assay": "product", "type": "biochemical", "details": "NaMN co-substrate; 6 h incubation"}
{"smiles": "Cc1ccc(O)cc1", "note": "[P, p-cresol]", "values": [{"measurement": "product (alpha-p-cresolyl-ribotide) by RP-HPLC and ESI-MS", "value": "The product of SoArsAB when phenol, p-cresol, or DMB was used as substrate was purified"}]}
